EC50, IC50 and outcome data for 53 compounds are collected here from PubChem BioAssay AID179 (DTP/NCI, 2004).

One may read the EC50 as the concentration giving half of the maximal effect. As usually defined, the IC50 is the concentration needed to halve the response being measured. High values mean a need for much substance, low ones inhibition by little substance.

The structures appear in SMILES notation. Active and inactive are the calls of the source.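 The calls were made as follows: active = compounds giving half or more protection of infected cells from virus-caused growth loss, again on retest; inactive = the rest.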

The experiment deals with CEM cells HIV-1 protection, formazan growth assay. Put plainly: NCI AIDS Antiviral Assay. To be noted: for IC50: measured here: growth of uninfected CEM cells. The method, boiled down: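 Steps: treat uninfected and HIV-1-infected human CEM cells at five drug levels; quantify growth by soluble formazan; retest any compound reaching 50% protection; classify actives from the retest.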

For `Cc1ccc(S(=O)(=O)[N-]C2C(=O)c3ccccc3C(=O)C2[n+]2cccc(C(N)=O)c2)cc1` (stereo not given), the EC50 was above 200 µM and the IC50 is above 200 µM.

Turning to `CCOC(=O)NC(=O)c1cn(CCCCCCCCCCC(=O)N2CCN(CCn3cc(C(=O)NC(=O)OCC)c(=O)[nH]c3=O)CC2)c(=O)[nH]c1=O`, the result was inactive. As for `COC(=O)N1C2c3ccccc3C(c3ccccc32)N1C(=O)OC`, the EC50 was above 200 µM and the IC50 is above 200 µM. On to `COC=C1C(=O)OC(C)(C)OC1=O`, for which the EC50 was 28.8 µM and the IC50 came to 107 µM. For `S=C1SC(c2ccc(Cl)cc2)(c2ccc(Cl)cc2)c2ccccc21`, the EC50 is above 200 µM and the IC50 turned out to be 123 µM.

Consider `N#CC1=C2Oc3ccccc3N2C(c2ccc(Cl)cc2)C(C#N)=C1N` (stereo not given), for which the EC50 was above 200 µM and the IC50 is 36.3 µM.

As to `CCOc1ccc(C2OCCC(C)O2)cc1OC` (stereo not given), the EC50 was above 200 µM and the IC50 is above 200 µM. `CCOC(=O)NC(=O)c1cn(C2OC(CO)C(O)C2O)c(=O)[nH]c1=O` (stereo not given): the EC50 was above 692 µM and the IC50 is above 692 µM.

For `CC(=O)CCCCn1c(=O)c2c(nc(Br)n2C)n(C)c1=O`, the EC50 was above 200 µM and the 50% inhibitory concentration (IC50) came to 52.5 µM. As for `COc1cc(OC)c(NC2=NCCO2)cc1Cl`, the EC50 is above 200 µM and the IC50 came out at 13.5 µM. Consider `CC1(C)CC(C)(C)C1=NNC(N)=O`, for which the EC50 is above 200 µM and the IC50 is above 200 µM. `O=C(Cc1ccccc1)NCCc1ccc(O)c(O)c1`: the EC50 is above 200 µM and the IC50 was determined as 27.5 µM. On the same counts, the results for `Cn1cnc([N+](=O)[O-])c1Sc1nc2ccccc2s1` are above 24.5 µM and 3.24 µM. With `O=c1cn[nH]c2c(Br)cccc12`, the EC50 was above 479 µM and the IC50 worked out at 275 µM. Regarding `Cc1cccc(C)c1N/C(=N\Nc1c([N+](=O)[O-])cccc1[N+](=O)[O-])NC(=O)c1ccccc1C(=O)N/C(=N/Nc1c([N+](=O)[O-])cccc1[N+](=O)[O-])Nc1c(C)cccc1C`, the EC50 was above 200 µM and the IC50 is 69.2 µM. Consider `O=C(CCCCCCCCC(=O)NN1C(=O)/C(=C\c2ccc(O)c(O)c2)SC1c1c(O)ccc2ccccc12)NN1C(=O)C(=Cc2ccc(O)c(O)c2)SC1c1c(O)ccc2ccccc12` (stereo not given), for which the EC50 is above 200 µM and the IC50 was 1 µM. For the compound `CCCC(=O)[O-].N.N.N.N.N.[Co+3].[O-][Cl+3]([O-])([O-])[O-]`, the outcome was inactive. Take `O=[N+]([O-])c1ccc(C2CC(c3ccccc3)=Nc3ccccc3S2)cc1` (stereo not given): the EC50 is above 35.5 µM and the IC50 was 5.75 µM.

Regarding `C=CCCC(=O)CC(=O)OC`, the EC50 is above 1580 µM and the IC50 was above 1580 µM. For `O=C(O)c1c2ccccc2nc2[nH]c(=O)[nH]c(=O)c12`, the outcome was inactive and the IC50 stood at 141 µM. Take `COC(=O)[C@@H]1C2OC(C)(C)OC2CN1C(=O)OCc1ccccc1` (stereo not given in full): the outcome was inactive. As for `O=C1c2ccccc2C(=O)C1(Br)c1ccccc1`, the EC50 was above 200 µM and the IC50 is above 200 µM. For the compound `O=c1c(Br)cc2nc3ccccc3sc-2c1Br`, the EC50 was above 10 µM and the IC50 was above 10 µM. Take `Cc1cc(C)nc(NC(=S)Nc2cccc(Cl)c2)c1`: the EC50 is above 200 µM and the IC50 came out at 27.5 µM. Regarding `Nc1[nH]c(=S)nc2snnc12`, the EC50 is above 200 µM and the IC50 is above 200 µM. Turning to `O/N=C(/CC(O)(C(F)(F)F)C(F)(F)F)c1ccccc1`, the EC50 is above 200 µM and the 50% inhibitory concentration (IC50) was above 200 µM. With `COc1ccc2cc(-c3ccc(OC)c(OC)c3)c(=O)oc2c1`, the EC50 is above 200 µM and the IC50 was above 200 µM. `CC(=O)Nc1ccc(C(=O)NN2C(=O)C(Cl)/C2=C/c2ccco2)cc1` (stereo not given): the result was inactive. For the compound `COC(=O)C1=C(C(=O)OC)c2cc(OC)ccc2C(C(=S)N(C)C)S1` (stereo not given), the EC50 is above 200 µM and the IC50 is above 200 µM. Turning to `O=C1C=C(Nc2cc(Cl)ccc2Cl)c2ccccc2C1=O`, the EC50 is above 3.16 µM and the IC50 was above 3.16 µM. As for `CC(=O)Nc1ccc(S(=O)(=O)N/N=C/CN2C(=O)c3ccccc3C2=O)cc1`, the EC50 is 26.9 µM and the IC50 was determined as 89.1 µM. On the same counts, the results for `CCC(C)C(N)CO` (stereo not given) are above 200 µM and above 200 µM. For `CCCc1cc(=O)oc2c3c(cc(OC)c12)O[C@H](C)[C@@H](C)[C@@H]3O`, the EC50 was above 200 µM. With `CCOC(=O)c1cc(-c2ccc(Cl)cc2)c([N+](=O)[O-])n1C`, the EC50 was above 200 µM and the IC50 is 26.9 µM.

Turning to `Cn1c2ccccc2n2c3ncccc3c(=S)c(C#N)c12`, the EC50 was above 200 µM and the IC50 was above 200 µM. Take `CCC1=CCN(c2cc(C)ccn2)OC1c1ccc(OC)cc1` (stereo not given): the EC50 is above 32.4 µM and the IC50 is above 32.4 µM. For `C(=C\c1ccnc2ccccc12)/c1ccnc2ccccc12`, the EC50 was above 13.2 µM and the IC50 was above 13.2 µM. Take `CC(=O)OC1CCC2OOC1O2` (stereo not given): the outcome was inactive. For the compound `O=c1cc(-c2ccccc2)oc2c(O)c(O)cc(O)c12`, the EC50 is above 186 µM and the IC50 was above 186 µM. Take `COC(=O)/C=C/c1ccc2c(c1)CC1(C2)Cc2cc3c(cc2C1=O)CCC3` (stereo not given): the EC50 was above 100 µM and the IC50 was above 100 µM. Turning to `O=c1[nH]nc(Cc2ccccc2)n1CCCl`, the EC50 is above 200 µM and the IC50 is above 200 µM. As to `O=C(O)C1C=CC(c2ccc(Cl)cc2)=N1` (stereo not given), the EC50 is above 200 µM and the IC50 was above 200 µM. Consider `NC(Cc1cnc[nH]1)C(=O)NC(Cc1ccc(O)c(O)c1)C(=O)NCC(=O)N/C=C\c1c[nH]c2cc(Br)ccc12` (stereo not given), for which the EC50 was above 81.3 µM and the IC50 is above 81.3 µM. On to `CC1CCCC/C1=N/NS(=O)(=O)c1ccc(N)cc1` (stereo not given), for which the EC50 was above 240 µM and the IC50 is above 240 µM. In the case of `O=c1c2ccccc2ncn1O`, the EC50 was above 200 µM and the IC50 was above 200 µM. Turning to `Cc1ccc(/C([O-])=C(\C(=S)Nc2cccc(C(F)(F)F)c2)[n+]2ccccc2)cc1`, the EC50 is above 200 µM and the IC50 is 89.1 µM. On the same counts, the results for `CON(C)C(=O)CNC(=O)OCC1c2ccccc2-c2ccccc21` are above 200 µM and above 100 µM. For the compound `C[N+](C)(Cc1ccc(NC(=O)CCCC(=O)ON2C(=O)CCC2=O)cc1)c1ccccc1`, the EC50 was above 200 µM and the 50% inhibitory concentration (IC50) amounted to 135 µM. On the same counts, the results for `CN(NC(=O)/C(=C/c1ccc(Cl)cc1)NC(=O)c1ccccc1)c1cn[nH]c(=O)c1Cl` are above 200 µM and 6.92 µM. Turning to `C=CCOC(=O)NC1C(OC(C)[C@@H](NC(=O)OCc2ccccc2)C(=O)OC(C)(C)C)OC(COC(C)=O)C(OC(C)=O)C1OC(C)=O` (stereo not given in full), the EC50 is above 200 µM and the IC50 was 28.8 µM. For the compound `COC(OC)c1cccc2c1C(=O)CCC1(CC2)OCCCCO1`, the EC50 is above 200 µM and the 50% inhibitory concentration (IC50) was above 200 µM. Regarding `CC(=O)c1c(C)nc(SSc2nc(C)c(C(C)=O)c(-c3ccc(Cl)cc3)c2C#N)c(C#N)c1-c1ccc(Cl)cc1`, the EC50 was above 200 µM and the IC50 is above 200 µM.

As to `Cc1nc2c(sc(=S)n2-c2ccccc2)c2nc3ccccc3n12`, the EC50 was above 2.09 µM and the IC50 is above 2.09 µM.
